Patent US11427610B2, “Cyclic dinucleotides as anticancer agents” (BRISTOL-MYERS SQUIBB COMPANY, priority 2017, dated 2022)
Read-outs that look alike come from different tables or passages of the source.

Assays:
[1] = test system: IRF3; experiment: STING THP1 reporter assay, IRF pathway (Lucia luciferase); format: cell-based; conditions: THP1-Dual cells, 10% human plasma, 100% activation = 100 μM cGAMP, luciferase readout, read-out: THP1 Reporter Assays EC50 (μM) IRF3
Excerpt: (§1) THP1-Dual™ cells were derived from the human THP-1 monocyte cell line by stable integration of two inducible reporter constructs. To this end, THP1-Dual™ cells allow the simultaneous study of the NF-κB pathway, by monitoring the activity of SEAP, and the IRF pathway by assessing the activity of a secreted luciferase (Lucia). Both reporter proteins are readily measurable in the cell culture supernatant when using QUANTI-Blue™, a SEAP detection reagent, and QUANTI-Luc™, a luciferase detection reagent.
(§2) THP1-Dual™ cells induce the activation of NF-κB in response to STING agonists. They also trigger the IRF pathway upon stimulation with STING agonists, such as cGAMP. Here, the THP-1-Dual cells were used to assess STING binders for function on the cellular level.
(§3) Serial dilutions of compounds in DMSO were added to low volume 384 well plates at 100 nl/well using an ECHO acoustic dispenser (Labcyte, model 550) to achieve final starting concentration of 100 μM in cell suspension. THP-1 Dual™ STING reporter cells (Invivogen, Dual cells cat #THPD-nfis) were added to the plates with compounds at 15,000 cells in 10 μL per well in RPMI media (Gibco, cat #11875) containing 10% human plasma in a low volume 384-well black wall clear bottom tissue culture plate (Corning, cat #3542) for SEAP assay and low volume solid white plate (Corning, cat #3826) for luciferase assay. One column of the plate was reserved for treatment with cGAMP at 100 μM for 100% activation calculation and one column for no treatment (DMSO only) for baseline activation. Plates were then incubated in 37° C. incubator at 5% CO2 for 20 hours.
(§4) In the SEAP assay, 5 μl of 2× QuantiBlue (Invivogen, cat #Rep-qb2) is added to 384 well black plates seeded with THP1 cells and incubated at 37° C. for 2 hours. Plates were read on the Envision (Perkin Elmer) at 620 nm wavelength (OD620). In the luciferase assay, 5 μl of Quantiluc (Invivogen, Rep-qlc2) is added to white 384 well plates seeded with THP1 cells and read at 5 minutes on the Envision (Perkin Elmer) using a luminescence protocol (RLU). For both cell lines, 100% activation was determined by value (RLU) of THP-1 Dual STING cells stimulated with 100 μM cGAMP (Invivogen, cat #TLRL-NACGA23-5).

[2] = target: T1, STING WT: His-TVMV-S-hSTING(155-341)-H232R (Homo sapiens, UniProt Q86WV6, H232R); experiment: STING HTRF binding assay, STING WT; conditions: 20 nM His-tagged STING cytoplasmic domain, 200 nM fluorescein-labeled cGAMP analog probe, one hour; read-out: HTRF Binding Assays IC50 (μM) STING WT
T1 construct: His-TVMV-S-hSTING(155-341)-H232R
Procedure: (§5) A time resolved FRET-based competition binding assay was used to assess test article binding to STING WT and STING AQ. His-tagged STING cytoplasmic domain (WT or AQ) at a concentration of 20 nM was incubated with 2.5 nM Tb-labeled anti-His antibody, test compound, and fluorescein-labeled cGAMP analog probe (BioLog cat. no. C195) at a concentration of 200 nM (STING WT) or 40 nM (STING AQ) in PBS containing 0.005% Tween-20 and 0.1% BSA for one hour. Fluorescence at 495 nm and 520 nm was measured using an EnVision microplate reader to quantify FRET between Tb-labeled anti-His antibody and fluorescein-labeled probe. Background was defined as the signal obtained in the absence of STING protein, and background subtracted FRET ratios were normalized to the maximum signal obtained in the absence of test compound. These values were converted to a percent inhibition. Percent inhibition was determined for test compounds at 11 concentrations. The IC50, defined as the concentration of competing test compound needed to reduce specific binding of the probe by 50%, was calculated using the 4 parameter logistic equation to fit the data

[3] = target: T2, STING AQ: His-TVMV-S-hSTING(155-341)-G230A-R293Q (Homo sapiens, UniProt Q86WV6, G230A/H232R/R293Q); experiment: STING HTRF binding assay, STING AQ; conditions: 20 nM His-tagged STING cytoplasmic domain, 40 nM fluorescein-labeled cGAMP analog probe, one hour; read-out: HTRF Binding Assays IC50 (μM) STING AQ
T2 construct: His-TVMV-S-hSTING(155-341)-G230A-R293Q
Procedure: as §5

[4] = test system: NFkB; experiment: STING THP1 reporter assay, NF-κB pathway (SEAP); format: cell-based; conditions: THP1-Dual cells, 10% human plasma, 100% activation = 100 μM cGAMP, SEAP readout, read-out: THP1 Reporter Assays EC50 (μM) NFkB
Excerpt: as §1, §2, §3, §4

T2 sequence (Q86WV6 with tags, fused parts or gaps G230A/H232R/R293Q): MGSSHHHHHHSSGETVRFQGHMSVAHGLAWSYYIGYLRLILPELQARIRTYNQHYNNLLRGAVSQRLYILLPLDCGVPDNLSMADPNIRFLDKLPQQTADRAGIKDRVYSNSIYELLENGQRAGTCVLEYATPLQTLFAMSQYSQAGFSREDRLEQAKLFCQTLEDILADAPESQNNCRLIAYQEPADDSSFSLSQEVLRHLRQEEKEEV
T1 sequence (Q86WV6 with tags, fused parts or gaps H232R): as the sequence (Q86WV6 with tags, fused parts or gaps G230A/H232R/R293Q) above, with A99G, Q162R counted along it

SMILES	EC50 ([1]; 20 hours) [µM]	IC50 [2] [µM]	IC50 [3] [µM]	EC50 ([4]; 20 hours) [µM]	EC50 ([1]; Homo sapiens, THP-1, 20 h) [µM]	EC50 ([4]; Homo sapiens, THP-1, 20 h) [µM]
Nc1ncnc2c1ncn2[C@@H]1O[C@@H]2COP(O)(=S)O[C@@H]3[C@H](O)[C@@H](COP(O)(=S)O[C@H]2[C@H]1F)O[C@H]3C#Cc1ccccc1 (single isomer, unassigned) [Example 2-1]	> 100	> 100	19.4	–	–	–
Nc1ncnc2c1ncn2[C@@H]1O[C@@H]2COP(O)(=S)O[C@@H]3[C@H](O)[C@@H](COP(O)(=S)O[C@H]2[C@H]1F)O[C@H]3C#Cc1cccnc1 (single isomer, unassigned) [Example 3-4]	> 100	29.6	1.4	> 100	–	–
Nc1ncnc2c1ncn2[C@@H]1O[C@@H]2COP(O)(=S)O[C@@H]3[C@H](O)[C@@H](COP(O)(=S)O[C@H]2[C@H]1F)O[C@H]3C#Cc1ccccc1 (single isomer, unassigned) [Example 2-4]	> 100	> 100	17	–	–	–
Nc1ncnc2c1ncn2[C@@H]1O[C@@H]2COP(O)(=S)O[C@@H]3[C@H](O)[C@@H](COP(O)(=S)O[C@H]2[C@H]1F)O[C@H]3C#Cc1cccnc1 (single isomer, unassigned) [Example 3-1]	> 100	67.4	1.3	> 100	–	–
C#C[C@@H]1O[C@@H]2COP(O)(=S)O[C@H]3[C@@H](F)[C@H](n4cnc5c(N)ncnc54)O[C@@H]3COP(O)(=S)O[C@@H]1[C@@H]2O (single isomer, unassigned) [Example 1-3]	–	55.3	1.9	–	> 100	> 100
C#C[C@@H]1O[C@@H]2COP(=O)(S)O[C@H]3[C@@H](F)[C@H](n4cnc5c(N)ncnc54)O[C@@H]3COP(=O)(S)O[C@@H]1[C@@H]2O (single isomer, unassigned) [Example 1-1]	–	1.4	0.06	–	23	37
Nc1ncnc2c1ncn2[C@@H]1O[C@@H]2COP(O)(=S)O[C@@H]3[C@H](O)[C@@H](COP(O)(=S)O[C@H]2[C@H]1F)O[C@H]3C#Cc1cccnc1 (single isomer, unassigned) [Example 3-3]	6	1.1	0.04	8.1	–	–
Nc1ncnc2c1ncn2[C@@H]1O[C@@H]2COP(O)(=S)O[C@@H]3[C@H](O)[C@@H](COP(O)(=S)O[C@H]2[C@H]1F)O[C@H]3C#Cc1ccccc1 (single isomer, unassigned) [Example 2-3]	–	20.5	0.7	–	> 100	> 100
Nc1ncnc2c1ncn2[C@@H]1O[C@@H]2COP(O)(=S)O[C@@H]3[C@H](O)[C@@H](COP(O)(=S)O[C@H]2[C@H]1F)O[C@H]3C#Cc1ccccc1 (single isomer, unassigned) [Example 2-2]	> 100	9.6	0.5	–	–	–
Nc1ncnc2c1ncn2[C@@H]1O[C@@H]2COP(O)(=S)O[C@@H]3[C@H](O)[C@@H](COP(O)(=S)O[C@H]2[C@H]1F)O[C@H]3C#Cc1cccnc1 (single isomer, unassigned) [Example 3-2]	> 100	3.4	0.2	> 100	–	–
C#C[C@@H]1O[C@@H]2COP(=O)(S)O[C@H]3[C@@H](F)[C@H](n4cnc5c(N)ncnc54)O[C@@H]3COP(=O)(S)O[C@@H]1[C@@H]2O (single isomer, unassigned) [Example 1-2]	24	1.7	0.03	42	–	–
